For series [1] the following is noted: mouse, in vivo, ip.
Series [2] addresses hKOR (Homo sapiens, UniProt P41145). Conditions: cited from earlier work.
For series [3], the target named is T1, kOR (Mus musculus, UniProt P33534). It counts as cell-based.
For series [4], the system named is EAE mouse model. Conditions: mice; oral administration; cited from earlier work.
The target of series [5] is T1, kOR. The experiment in a line: biochemical. It counts as binding.
In series [6] the target is T1, kOR. The series can be described thus: cell-based.
Series [7] has as its system T-cell proliferation. The settings on record: in vitro; IL-2-dependent mechanism; cited from earlier work.

We go through seven compounds from patent US20240269230A1 (priority 2020, published 2024).

Values joined by “and” are separate entries in the source; they are usually repeats but may differ in a detail not shown here. Equal values may be shown once. Bridge positions count the residues as written; N and C are the ends. Ends that are not written are not given here. Peptide text beside a SMILES is read from it.

T1 sequence (P33534 whole entry): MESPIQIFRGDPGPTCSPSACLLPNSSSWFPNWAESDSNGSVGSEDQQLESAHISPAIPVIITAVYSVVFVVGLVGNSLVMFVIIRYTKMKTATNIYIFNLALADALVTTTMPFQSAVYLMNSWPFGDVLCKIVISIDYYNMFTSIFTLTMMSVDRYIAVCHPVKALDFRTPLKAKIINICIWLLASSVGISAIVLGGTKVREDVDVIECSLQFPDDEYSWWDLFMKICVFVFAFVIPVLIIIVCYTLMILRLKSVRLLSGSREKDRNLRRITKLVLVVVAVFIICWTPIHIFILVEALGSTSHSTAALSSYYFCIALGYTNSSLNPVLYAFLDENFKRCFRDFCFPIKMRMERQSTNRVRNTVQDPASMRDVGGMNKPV
Chain of hKOR (P41145 whole entry): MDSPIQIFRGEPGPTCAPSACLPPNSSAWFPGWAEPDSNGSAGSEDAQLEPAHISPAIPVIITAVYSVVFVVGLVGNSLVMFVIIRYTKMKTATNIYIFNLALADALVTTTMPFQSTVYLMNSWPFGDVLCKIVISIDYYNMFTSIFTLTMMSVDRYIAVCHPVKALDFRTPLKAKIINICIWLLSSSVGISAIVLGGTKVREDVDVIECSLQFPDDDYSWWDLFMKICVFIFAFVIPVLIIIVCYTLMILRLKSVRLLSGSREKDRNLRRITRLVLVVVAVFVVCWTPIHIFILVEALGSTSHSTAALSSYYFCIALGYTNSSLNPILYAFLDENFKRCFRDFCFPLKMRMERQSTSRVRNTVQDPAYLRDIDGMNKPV

Consider `Cc1cc(-c2ccc(/N=N/c3ccc4c(S(=O)(=O)[O-])cc(S(=O)(=O)[O-])c(N)c4c3O)c(C)c2)ccc1/N=N/c1ccc2c(S(=O)(=O)[O-])cc(S(=O)(=O)[O-])c(N)c2c1O.[Na+].[Na+].[Na+].[Na+]` [EvansBlue dye, reference compound], for which, in series [1], the “Biodistribution: brain” value was “strong signal” and the “Biodistribution: spine” value was “strong signal”.
`CC(C)C[C@@H]1NC(=O)CNC(=O)[C@H](CC(N)=O)NC(=O)[C@H](CCCNC(=N)N)NC(=O)[C@H]([C@@H](C)O)NC(=O)[C@@H]2CSSC[C@@H]3NC(=O)[C@H]([C@@H](C)O)NC(=O)CNC(=O)CNC(=O)[C@H](C(C)C)NC(=O)[C@@H]4CSSC[C@H](NC(=O)[C@H](CCCCN)NC(=O)[C@H](CSSC[C@H](NC(=O)[C@H](C(C)C)NC(=O)[C@@H]5CCCN5C1=O)C(=O)NCC(=O)N[C@@H](CCC(=O)O)C(=O)N[C@@H]([C@@H](C)O)C(=O)N4)NC(=O)CNC(=O)[C@@H]1CCCN1C(=O)[C@H]([C@@H](C)O)NC(=O)[C@H](CC(N)=O)NC3=O)C(=O)N[C@@H](CO)C(=O)N[C@@H](Cc1c[nH]c3ccccc13)C(=O)N1CCC[C@H]1C(=O)N[C@@H](C(C)C)C(=O)N2` [[T20K]-kalata B1] (cyclo(CGETCVGGTCNTPGCKCSWPVCTRNGLPV); disulfide 1-15, 5-17, 10-22 (inferred); ring closure inferred): the “Binding to and activation of hKOR” value in series [2] is “bind to and activate hKOR”. Besides, in series [3], the “Effect on the efficacy of U50,488 to recruit beta arrestin” value is listed as “remarkable alleviation of the efficacy”, the “Effect on the potency of U50,488 to recruit beta arrestin” value was “not impinging on its potency” and the beta arrestin recruitment result is reported as “no recruitment of beta arrestin could be detected”. Moreover, in series [4], the “Symptoms of EAE” value was “significant delay and diminished symptoms of EAE”. Further, in series [5], the “Effect on the affinity of dynorphin A 1-13” value is on record as “only slightly affects the affinity”, the “Effect on tritiated diprenorphine binding” value is “negatively modulates tritiated diprenorphine” and the affinity corresponds to a Ki of 2.7 µM. In series [6], the EC50 was determined as 17 µM, the “Effect on the efficacy of U50,488 (cAMP)” value is listed as “only slightly affected the efficacy”, the “Effect on the efficacy of dynorphin A 1-13 (cAMP)” value is “increase in its efficacy” and the “Effect on the potency of dynorphin A 1-13 (cAMP)” value is recorded as “does not affect the potency”. Further, in series [6], the “Mode of action at the kOR” value was “full agonist” and the “Shift in the potency of U50,488 (cAMP)” value is “nine-fold leftward shift in the potency”.
Compound `CC[C@H](C)[C@@H]1NC(=O)[C@H](C(C)C)NC(=O)[C@H]([C@@H](C)O)NC(=O)[C@H](CO)NC(=O)[C@H](Cc2ccccc2)NC(=O)[C@@H]2CSSC[C@@H]3NC(=O)[C@H](C(C)C)NC(=O)[C@H](CCCCN)NC(=O)[C@H](CC(N)=O)NC(=O)[C@H](CCCCN)NC(=O)[C@@H]4CSSC[C@H](NC(=O)[C@H](CO)NC(=O)[C@H](CCC(=O)O)NC(=O)CNC(=O)[C@H](CSSC[C@H](NC(=O)CNC1=O)C(=O)N[C@@H](CO)C(=O)N4)NC(=O)[C@@H]1CCCN1C(=O)[C@H]([C@@H](C)CC)NC(=O)[C@H](C(C)C)NC(=O)CNC(=O)[C@H](CC(N)=O)NC(=O)[C@H](CCCNC(=N)N)NC(=O)[C@H](Cc1ccc(O)cc1)NC3=O)C(=O)N[C@@H](C(C)C)C(=O)N[C@@H](Cc1ccccc1)C(=O)N[C@@H]([C@@H](C)CC)C(=O)N1CCC[C@H]1C(=O)N2` [caripe 10] (cyclo(CFSTVIGCSCKNKVCYRNGVIPCGESCVFIP); disulfide 1-15, 8-23, 10-27 (inferred); ring closure inferred) gave a Ki in series [5] of 1 µM.
Regarding “conjugated [T20K]-kalata B1: [T20K]-kalata B1 conjugated to VivoTag 680 XL Fluorochrome (GLPVCGETCVGGTCNTPGCKCSWPVCTRN; ends and bridges not checked; also: conjugated to VivoTag 680 XL fluorochrome (place not given here); UniProt P56254 89-117, looked up, variant T20K)”, in series [1], the “Biodistribution: brain” value is “accumulated in the brain” and the “Biodistribution: spine” value is “also in the spine but to a far less extent”.
Regarding dynorphin A 1-13 [reference compound], the “Receptor activation cAMP Emax (%)” value in series [6] is 113% and 104% and 119% and 134% and 137% and 96%.
Regarding “kalata B1: circular plant peptide (cyclotide), GLPVCGETCVGGTCNTPGCTCSWPVCTRN (cyclo(GLPVCGETCVGGTCNTPGCTCSWPVCTRN); ends not checked; also: three disulfide bonds (cystine knot), pairing not given here; listed as Oldenlandia affinis)”, the T-cell proliferation entry in series [7] is recorded as “silence T-cell proliferation”.
In the case of “vitri cyclotide: novel cyclotide isolated from Viola tricolor, GDPIPCGETCFTGKCYSETIGCTCEWPICTKN (not fully specified (bridges); ends and bridges not checked; also: cyclic, type not given here)”, in series [5], the “Binding of isolated vitri peptide to the kOR” value is on record as “able to bind to the kOR”.
